The test system of assay [1] is THP1-Blue cells (express naturally both TLR2 and TLR4). The experiment in a line: THP1-Blue NF-κB/AP-1-inducible SEAP reporter. The settings on record: for Optical density read at 625 nm, mean of duplicates: 48 h. In kind it is cell-based, human. The protocol:
A first series of experiment was performed on THP-1 cells, which express naturally both TLR2 and TLR4. THP-1 cells are human peripheral blood monocytic cells. Monocytes play a key role in innate immunity and express most TLRs at various levels. As for the primary cells, THP-1 cells activate NF-κB and other transcription factors in response to TLR ligands
To facilitate analysis of TLR response in monocytes, InvivoGen (Toulouse, France) provides THP-1 clones stably transfected with an NF-κB-inducible reporter system, called THP1-Blue™. THP-1 Blue cells were stably transfected with a reporter plasmid expressing a secreted embryonic alkaline phosphatase (SEAP) gene under the control of a promoter inducible by several transcription factors such as NF-κB and AP-1. Upon TLR stimulation, THP1-Blue™ cells activate transcription factors and subsequently the secretion of SEAP which is easily detectable when using QUANTI-Blue\u2122a medium that turns purple/blue in the presence of SEAP.
The cells were stimulated with the controls and compounds of the invention according to manufacturer's instructions. Results: Increased OD at 625 Nm after 48 Hours: The results for the controls (negative=LPS K12CD25 ultrapure, a TLR4 agonist; and PAM3CSK4=positive, a TLR2 agonist) are provided in the table below. The results (expressed as OD of arbitrary units) show the mean values (from duplicate measures) of Optical density read at 625 nm, 48 h after stimulation at 37° C. with the controls (up to 1000 ng/ml): […]

For the next assay, the target named is T1, TLR2 (Homo sapiens, UniProt O60603).
T1 construct: host or cells: HEK293
Nature of the assay: HEK-TLR2 IL-8 secretion. The format is cell-based. The settings on record: for IL-8 secretion, mean: 24 h; for activation of IL-8 secretion via TLR2 (in words): HEK-TLR2. The source says:
(§1) The HEK293 cell line was chosen for its null or low basal expression of the TLR genes. These cells enable efficient monitoring of TLR activity using ELISA analysis such as IL-8 titration or reporter-based systems that monitor TLR-induced NF-κB activation. HEK-TLR2 cells (Invivogen, Toulouse, France) are engineered HEK293 cells stably transfected with multiple genes from the TLR2 pathway that include TLR2 and genes participating in the recognition or involved in the signaling cascade. These cells secrete IL-8 after TLR2 stimulation. The experiments were performed according to manufacturers' instructions. Briefly, 2×10^4 cells/well (200 ul RPMI) are incubated at 37° C. during 3 days (5% CO2). The medium is removed, and 90 ul RPMi+5% FCS is added to the wells Then the agonists and controls are added (10 ul/well). The cells return to the incubator for 24 hours. The supernatants are collected and the IL-8 ELISA is performed according to manufacturer's instructions

Another assay has as its system rat mast cells. Nature of the assay: Histamine secretion (compound 48/80-stimulated). In kind it is cell-based. The conditions noted are these: Rattus norvegicus, Mast cell, 2 min, compound 48/80 0.1 μg/ml, 37° C., read-out: IC50.
Another assay deals with T2, TLR4 (Homo sapiens, UniProt O00206+Q9Y6Y9).
T2 construct: expressed in transfected cells; host or cells: HEK293
Nature of the assay: HEK-MD2-TLR4-CD14 IL-8 secretion. In kind it is cell-based. The settings on record: 24 h.
From the text: as §1
HEK-MD2-TLR4-CD14 are highly sensitive to LPS. They were obtained by stable transfection of HEK293 cells with the TLR4, MD2 and CD14 genes and an NF-κB-inducible reporter system. They secrete IL-8. We used the same experimental procedure as for the other HEK cell lines described above.

T1 sequence (O60603 21-784): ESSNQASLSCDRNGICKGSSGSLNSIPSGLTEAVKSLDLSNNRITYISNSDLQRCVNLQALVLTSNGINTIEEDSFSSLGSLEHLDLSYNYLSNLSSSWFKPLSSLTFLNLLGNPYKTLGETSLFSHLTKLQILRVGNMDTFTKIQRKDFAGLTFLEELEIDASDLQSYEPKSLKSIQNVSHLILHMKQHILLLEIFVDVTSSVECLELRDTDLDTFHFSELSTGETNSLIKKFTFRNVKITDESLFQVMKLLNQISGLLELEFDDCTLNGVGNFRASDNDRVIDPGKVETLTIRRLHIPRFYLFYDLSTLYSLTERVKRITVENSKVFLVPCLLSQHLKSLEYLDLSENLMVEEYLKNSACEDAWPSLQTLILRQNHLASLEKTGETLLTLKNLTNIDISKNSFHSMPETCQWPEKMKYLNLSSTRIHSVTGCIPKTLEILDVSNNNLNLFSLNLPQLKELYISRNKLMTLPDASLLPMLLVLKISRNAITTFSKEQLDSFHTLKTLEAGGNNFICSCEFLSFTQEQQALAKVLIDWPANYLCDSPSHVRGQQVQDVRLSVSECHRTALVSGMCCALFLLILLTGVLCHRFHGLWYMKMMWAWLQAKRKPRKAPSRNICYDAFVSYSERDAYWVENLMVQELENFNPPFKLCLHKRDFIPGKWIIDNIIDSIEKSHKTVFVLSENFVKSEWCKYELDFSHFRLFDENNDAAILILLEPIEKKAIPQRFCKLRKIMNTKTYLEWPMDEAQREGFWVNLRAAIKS
T2 sequence (O00206 24-839): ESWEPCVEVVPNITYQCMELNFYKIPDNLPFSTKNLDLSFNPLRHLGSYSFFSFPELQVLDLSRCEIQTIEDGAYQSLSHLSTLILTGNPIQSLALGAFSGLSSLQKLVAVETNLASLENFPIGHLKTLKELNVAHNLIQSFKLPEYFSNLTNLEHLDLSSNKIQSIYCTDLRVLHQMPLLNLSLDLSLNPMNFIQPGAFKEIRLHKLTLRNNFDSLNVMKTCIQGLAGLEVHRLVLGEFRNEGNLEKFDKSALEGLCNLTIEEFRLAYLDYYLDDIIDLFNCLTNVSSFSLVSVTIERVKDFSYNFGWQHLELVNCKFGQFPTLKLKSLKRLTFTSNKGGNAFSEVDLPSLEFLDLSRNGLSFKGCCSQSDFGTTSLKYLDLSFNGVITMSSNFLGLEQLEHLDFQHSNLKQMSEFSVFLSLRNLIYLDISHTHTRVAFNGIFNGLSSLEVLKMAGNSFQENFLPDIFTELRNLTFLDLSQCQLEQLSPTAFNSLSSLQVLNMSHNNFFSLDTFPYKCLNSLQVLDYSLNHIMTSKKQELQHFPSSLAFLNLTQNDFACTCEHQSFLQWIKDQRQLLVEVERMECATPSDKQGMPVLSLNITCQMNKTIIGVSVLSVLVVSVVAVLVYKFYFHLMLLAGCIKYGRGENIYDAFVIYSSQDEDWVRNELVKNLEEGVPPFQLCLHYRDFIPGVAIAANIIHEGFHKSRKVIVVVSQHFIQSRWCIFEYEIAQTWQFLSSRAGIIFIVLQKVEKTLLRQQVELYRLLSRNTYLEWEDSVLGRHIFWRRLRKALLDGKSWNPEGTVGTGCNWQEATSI
T2 sequence (Q9Y6Y9 17-160 limits assumed): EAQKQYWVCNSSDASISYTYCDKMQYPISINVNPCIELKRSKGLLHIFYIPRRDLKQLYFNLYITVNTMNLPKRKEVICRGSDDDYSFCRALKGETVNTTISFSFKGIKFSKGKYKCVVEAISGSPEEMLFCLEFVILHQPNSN

As usually defined, the IC50 is the concentration needed to halve the response being measured. For `CCCCCCCCCCCC(=O)O[C@H](CCCCCCCCCCC)CC(=O)N[C@H]1[C@H](OC[C@H]2O[C@H](OCCC)[C@H](NC(=O)C[C@H](O)CCCCCCCCCCC)[C@@H](O)[C@@H]2O)O[C@H](CO)[C@@H](OP(=O)(O)O)[C@@H]1O` [compound 17, Propyl-2-Deoxy-6-O-[2-deoxy-4-O-(dihydroxyphosphoryl)-2-[(R)-3-dodecanoyloxytetradecanoylamino]-β-D-glucopyranosyl]-2-[(R)-3-hydroxytetradecanoylamino]-α-D-glucopyranoside], the “activation of THP-1 cells (in words)” value in assay [1] was “good activators of THP-1 cells”. For the same compound, the “Optical density read at 625 nm, mean of duplicates” value (“Optical density read at 625 nm” below) in assay [1] (14 ng/ml) is on record as 0.13 OD; in assay [1] (41 ng/ml), 0.15 OD; in assay [1] (124 ng/ml), 0.19 OD; in assay [1] (370 ng/ml) it was 0.36 OD; in assay [1] (1111 ng/ml) it was 0.74 OD; in assay [1] (3333 ng/ml), 1.02 OD. The “Optical density read at 625 nm” value in assay [1] (10000 ng/ml) is 1.15 OD. The “IL-8 secretion, mean” value was 0.19 pg/mL at TLR2 (14 ng/ml); 0.20 pg/mL at TLR2 (41 ng/ml); 0.24 pg/mL on TLR2 (124 ng/ml); 0.25 pg/mL on TLR2 (370 ng/ml); 0.39 pg/mL on TLR2 (1111 ng/ml); 0.88 pg/mL on TLR2 (3333 ng/ml). Also, the “IL-8 secretion, mean” value on TLR2 (10000 ng/ml) amounted to 2.02 pg/mL; on TLR4 (14 ng/ml) it was 1.88 pg/mL; on TLR4 (41 ng/ml), 1.97 pg/mL; on TLR4 (124 ng/ml), 1.93 pg/mL; at TLR4 (370 ng/ml) it was 1.85 pg/mL; at TLR4 (1111 ng/ml) it was 1.94 pg/mL. Moreover, the figures for the “IL-8 secretion, mean” value on TLR4 (3333 ng/ml) and at TLR4 (10000 ng/ml) were 1.89 pg/mL and 1.70 pg/mL, respectively. In addition, the “activation of IL-8 secretion via TLR2 (in words)” value at TLR2 was “able to activate IL-8 secretion via TLR2”. Also, the 50% inhibitory concentration (IC50) with rat mast cells is 1600 nM.
Consider `CCCCCCCCCCCC(=O)O[C@H](CCCCCCCCCCC)CC(=O)N[C@H]1[C@H](OC[C@H]2O[C@H](OCCOP(=O)(O)O)[C@H](NC(=O)C[C@H](O)CCCCCCCCCCC)[C@@H](O)[C@@H]2O)O[C@H](CO)[C@@H](OP(=O)(O)O)[C@@H]1O` [compound 33, 2-(Phosphonooxy)ethyl-2-Deoxy-6-O-[2-deoxy-4-O-(dihydroxyphosphoryl)-2-[(R)-3-dodecanoyloxytetradecanoylamino]-β-D-glucopyranosyl]-2-[(R)-3-hydroxytetradecanoylamino]-α-D-glucopyranoside], for which the “activation of THP-1 cells (in words)” value in assay [1] is recorded as “weaker”. The “Optical density read at 625 nm” value in assay [1] (14 ng/ml) was found to be 0.13 OD; in assay [1] (41 ng/ml), 0.12 OD; in assay [1] (124 ng/ml), 0.13 OD; in assay [1] (370 ng/ml), 0.16 OD; in assay [1] (1111 ng/ml) it was 0.19 OD; in assay [1] (3333 ng/ml) it was 0.25 OD. Also, the “Optical density read at 625 nm” value in assay [1] (10000 ng/ml) stood at 0.35 OD. Besides, the “IL-8 secretion, mean” value is 0.12 pg/mL at TLR2 (14 ng/ml); 0.18 pg/mL on TLR2 (41 ng/ml); 0.23 pg/mL at TLR2 (124 ng/ml); 0.31 pg/mL on TLR2 (370 ng/ml); 0.68 pg/mL on TLR2 (1111 ng/ml); 1.66 pg/mL on TLR2 (3333 ng/ml). In addition, the “IL-8 secretion, mean” value at TLR2 (10000 ng/ml) was determined as 3.64 pg/mL; at TLR4 (14 ng/ml), 1.83 pg/mL; on TLR4 (41 ng/ml) it was 1.79 pg/mL; at TLR4 (124 ng/ml) it was 1.65 pg/mL; on TLR4 (370 ng/ml) it was 1.64 pg/mL; at TLR4 (1111 ng/ml) it was 1.58 pg/mL. Also, the “IL-8 secretion, mean” value was determined as 1.62 pg/mL at TLR4 (3333 ng/ml) and 1.78 pg/mL on TLR4 (10000 ng/ml). Moreover, the “activation of IL-8 secretion via TLR2 (in words)” value on TLR2 is “able to activate IL-8 secretion via TLR2”. Further, the IC50 in the assay with rat mast cells was 210 nM.
In the case of `CCCCCCCCCCCC(=O)O[C@H](CCCCCCCCCCC)CC(=O)N[C@H]1[C@H](OC[C@H]2O[C@H](OCC(O)CO)[C@H](NC(=O)C[C@H](O)CCCCCCCCCCC)[C@@H](O)[C@@H]2O)O[C@H](CO)[C@@H](OP(=O)(O)O)[C@@H]1O` (stereo partly drawn) [compound 19, 2,3-Dihydroxypropyl-2-Deoxy-6-O-[2-deoxy-4-O-(dihydroxyphosphoryl)-2-[(R)-3-dodecanoyloxytetradecanoylamino]-β-D-glucopyranosyl]-2-[(R)-3-hydroxytetradecanoylamino]-α-D-glucopyranoside], the “activation of THP-1 cells (in words)” value in assay [1] is “good activators of THP-1 cells”. The “Optical density read at 625 nm” value was found to be 0.15 OD in assay [1] (14 ng/ml); 0.13 OD in assay [1] (41 ng/ml); 0.17 OD in assay [1] (124 ng/ml); 0.24 OD in assay [1] (370 ng/ml); 0.37 OD in assay [1] (1111 ng/ml); 0.58 OD in assay [1] (3333 ng/ml). In addition, the “Optical density read at 625 nm” value in assay [1] (10000 ng/ml) worked out at 0.77 OD. Besides, the “IL-8 secretion, mean” value at TLR2 (14 ng/ml) is 0.06 pg/mL; at TLR2 (41 ng/ml), 0.15 pg/mL; at TLR2 (124 ng/ml), 0.16 pg/mL; on TLR2 (370 ng/ml), 0.20 pg/mL; on TLR2 (1111 ng/ml) it was 0.27 pg/mL; at TLR2 (3333 ng/ml) it was 0.37 pg/mL. Also, the “IL-8 secretion, mean” value was found to be 0.62 pg/mL on TLR2 (10000 ng/ml); 1.69 pg/mL at TLR4 (14 ng/ml); 1.64 pg/mL at TLR4 (41 ng/ml); 1.56 pg/mL on TLR4 (124 ng/ml); 1.67 pg/mL on TLR4 (370 ng/ml); 1.73 pg/mL at TLR4 (1111 ng/ml). Moreover, the figures for the “IL-8 secretion, mean” value on TLR4 (3333 ng/ml) and on TLR4 (10000 ng/ml) were 1.88 pg/mL and 1.96 pg/mL, respectively. Further, the IC50 with rat mast cells turned out to be 160 nM.
